According to ChEMBL document CHEMBL5154672, “Design and synthesis of HDAC inhibitors to enhance the therapeutic effect of diffuse large B-cell lymphoma by improving metabolic stability and pharmacokinetic characteristics” (Eur J Med Chem, 2022):
Converted amounts (≈) assume the structure as drawn.

Experiments:
TMD8 [1] = experiment: Induction of apoptosis in human TMD8 cells assessed as viable cells at 4 uM incubated for 24 hrs by Annexin V-FITC/PI staining based flow cytometric analysis (reference value: 96.4%); type: functional; conditions: read-out: Activity
[2] = MRT(0 to infinity) in CB.17 SCID mouse xenografted with human TMD8 cells at 50 mg/kg, po measured upto 24 hrs by LC-MS/MS analysis; type: ADME, organism-based; conditions: in vivo
TMD8 [3] = experiment: Antiproliferative activity against human TMD8 cells assessed as remaining cell activity at 2 uM incubated for 72 hrs by luminescence assay relative to control; type: functional
[4] = Metabolic stability in rat liver microsomes assessed as intrinsic clearance measured for 75 to 130 mins by LC-MS/MS analysis; type: ADME, Microsome; conditions: time 75-130 min, read-out: CLH
[5] = AUC (0 to infinity) in ICR mouse at 25 mg/kg, po measured upto 24 hrs by LC-MS/MS analysis; type: ADME, organism-based; set-up: time < 24 hrs, dose 25 mg/kg, route po; conditions: in vivo
A549 = experiment: Antiproliferative activity against human A549 cells assessed as remaining cell activity at 2 uM incubated for 72 hrs by luminescence assay relative to control; type: functional
RS4-11 = experiment: Antiproliferative activity against human RS4-11 cells incubated for 72 hrs by luminescence assay; type: functional, cell-based; conditions: RS4-11, 72 h
TMD8 [6] = experiment: Induction of apoptosis in human TMD8 cells assessed as necrotic cells at 1 uM incubated for 24 hrs by Annexin V-FITC/PI staining based flow cytometric analysis (reference value: 1.85%); type: functional
[7] = MRT(0 to infinity) in CB.17 SCID mouse xenografted with human TMD8 cells at 100 mg/kg, po measured upto 24 hrs by LC-MS/MS analysis; type: ADME, organism-based; conditions: in vivo
CCRF-CEM = experiment: Antiproliferative activity against human CCRF-CEM cells incubated for 72 hrs by luminescence assay; type: functional, cell-based
TMD8 [8] = experiment: Induction of apoptosis in human TMD8 cells assessed as viable cells at 1 uM incubated for 24 hrs by Annexin V-FITC/PI staining based flow cytometric analysis (reference value: 96.4%); type: functional; conditions: read-out: Activity
HT-29 = experiment: Antiproliferative activity against human HT-29 cells incubated for 72 hrs by luminescence assay; type: functional, cell-based; conditions: HT-29, 72 h
[9] = Metabolic stability in human liver microsomes assessed as intrinsic clearance measured for 75 to 130 mins by LC-MS/MS analysis; type: ADME, Microsome; conditions: liver microsomes, time 75-130 min, read-out: CLH
HCT-116 = experiment: Antiproliferative activity against human HCT-116 cells incubated for 72 hrs by luminescence assay; type: functional, cell-based; conditions: HCT-116, 72 h
[10] = AUC (0 to infinity) in ICR mouse at 2 mg/kg, iv measured upto 24 hrs by LC-MS/MS analysis; type: ADME, organism-based; set-up: time < 24 hrs, dose 2 mg/kg, route iv; conditions: in vivo
[11] = Metabolic stability in monkey liver microsomes assessed as half life measured for 75 to 130 mins by LC-MS/MS analysis; type: ADME, Macaca fascicularis, Microsome; conditions: cynomolgus monkey, time 75-130 min
HuT78 = experiment: Antiproliferative activity against human HuT78 cells incubated for 72 hrs by luminescence assay; type: functional, cell-based; conditions: HuT78, 72 h
[12] = AUC (0 to t) in CB.17 SCID mouse xenografted with human TMD8 cells at 100 mg/kg, po measured upto 24 hrs by LC-MS/MS analysis; type: ADME, organism-based; set-up: dose 100 mg/kg, time < 24 hrs, route po; conditions: in vivo
Histone deacetylase 1 = Histone deacetylase 1 (Homo sapiens, UniProt Q13547); experiment: Inhibition of HDAC1 (unknown origin) using RHKK(Ac)AMC fluorogenic peptide as substrate preincubated for 10 mins followed by substrate addition for 1 hr in presence of ATP by fluoroscence based assay
Chain of Histone deacetylase 1 (Q13547 whole entry): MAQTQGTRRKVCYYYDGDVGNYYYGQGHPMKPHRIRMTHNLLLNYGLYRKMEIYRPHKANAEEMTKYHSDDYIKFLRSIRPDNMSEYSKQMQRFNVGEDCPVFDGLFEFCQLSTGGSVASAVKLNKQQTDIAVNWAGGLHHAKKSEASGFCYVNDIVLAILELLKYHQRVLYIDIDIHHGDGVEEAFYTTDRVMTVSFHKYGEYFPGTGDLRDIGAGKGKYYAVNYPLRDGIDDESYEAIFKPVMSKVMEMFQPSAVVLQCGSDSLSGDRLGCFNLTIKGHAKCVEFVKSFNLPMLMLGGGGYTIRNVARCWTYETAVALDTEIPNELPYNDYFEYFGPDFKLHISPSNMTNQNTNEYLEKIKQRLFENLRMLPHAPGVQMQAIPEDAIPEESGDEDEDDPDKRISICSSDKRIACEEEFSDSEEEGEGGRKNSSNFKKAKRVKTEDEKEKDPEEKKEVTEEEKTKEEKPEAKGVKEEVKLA

NCI-H441 = experiment: Antiproliferative activity against human NCI-H441 cells incubated for 72 hrs by luminescence assay; type: functional, cell-based; conditions: NCI-H441, 72 h
[13] = Aqueous solubility of the compound; type: physicochemical; conditions: aqueous medium
TMD8 [14] = experiment: Induction of apoptosis in human TMD8 cells assessed as necrotic cells at 0.5 uM incubated for 24 hrs by Annexin V-FITC/PI staining based flow cytometric analysis (RVB=1.85%); type: functional
Histone deacetylase 8 = Histone deacetylase 8 (Homo sapiens, UniProt Q9BY41); experiment: Inhibition of HDAC8 (unknown origin) using RHK(Ac)K(Ac)AMC fluorogenic peptide as substrate preincubated for 10 mins followed by substrate addition for 2 hr in presence of ATP by fluoroscence based assay
Chain of Histone deacetylase 8 (Q9BY41 whole entry): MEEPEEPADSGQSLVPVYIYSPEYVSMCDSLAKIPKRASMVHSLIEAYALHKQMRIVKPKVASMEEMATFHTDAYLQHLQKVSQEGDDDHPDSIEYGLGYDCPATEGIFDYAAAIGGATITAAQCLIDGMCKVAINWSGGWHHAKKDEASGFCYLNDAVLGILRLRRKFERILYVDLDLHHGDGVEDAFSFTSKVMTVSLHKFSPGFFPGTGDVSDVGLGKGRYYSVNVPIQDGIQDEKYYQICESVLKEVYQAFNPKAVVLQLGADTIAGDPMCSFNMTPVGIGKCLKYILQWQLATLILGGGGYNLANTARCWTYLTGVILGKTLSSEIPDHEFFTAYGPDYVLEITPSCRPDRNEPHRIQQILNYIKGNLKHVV

TMD8 [15] = experiment: Induction of apoptosis in human TMD8 cells assessed as late apoptotic cells at 1 uM incubated for 24 hrs by Annexin V-FITC/PI staining based flow cytometric analysis (reference value: 1.54%); type: functional
TMD8 [16] = experiment: Induction of apoptosis in human TMD8 cells assessed as early apoptotic cells at 1 uM incubated for 24 hrs by Annexin V-FITC/PI staining based flow cytometric analysis (reference value: 0.24%); type: functional
[17] = AUC (0 to infinity) in CB.17 SCID mouse xenografted with human TMD8 cells at 50 mg/kg, po measured upto 24 hrs by LC-MS/MS analysis; type: ADME, organism-based; set-up: dose 50 mg/kg, time < 24 hrs, route po; conditions: in vivo
[18] = AUC (0 to infinity) in CB.17 SCID mouse xenografted with human TMD8 cells at 100 mg/kg, po measured upto 24 hrs by LC-MS/MS analysis; type: ADME, organism-based; set-up: time < 24 hrs, dose 100 mg/kg, route po; conditions: in vivo
TMD8 [19] = experiment: Induction of apoptosis in human TMD8 cells assessed as early apoptotic cells at 0.5 uM incubated for 24 hrs by Annexin V-FITC/PI staining based flow cytometric analysis (reference value: 0.24%); type: functional
[20] = MRT (0 to t) in CB.17 SCID mouse xenografted with human TMD8 cells at 100 mg/kg, po measured upto 24 hrs by LC-MS/MS analysis; type: ADME, organism-based; conditions: in vivo
[21] = MRT (0 to t) in CB.17 SCID mouse xenografted with human TMD8 cells at 25 mg/kg, po measured upto 24 hrs by LC-MS/MS analysis; type: ADME, organism-based; conditions: in vivo
[22] = MRT(0 to infinity) in CB.17 SCID mouse xenografted with human TMD8 cells at 25 mg/kg, po measured upto 24 hrs by LC-MS/MS analysis; type: ADME, organism-based; conditions: in vivo
TMD8 [23] = experiment: Antiproliferative activity against human TMD8 cells incubated for 72 hrs by luminescence assay; type: functional, cell-based; conditions: TMD8, 72 h
MDA-MB-231 = experiment: Antiproliferative activity against human MDA-MB-231 cells incubated for 72 hrs by luminescence assay; type: functional, cell-based; conditions: MDA-MB-231, 72 h
[24] = Cmax in CB.17 SCID mouse xenografted with human TMD8 cells at 100 mg/kg, po measured upto 24 hrs by LC-MS/MS analysis; type: ADME, organism-based; set-up: time < 24 hrs, dose 100 mg/kg, route po; conditions: in vivo
[25] = AUC (0 to t) in CB.17 SCID mouse xenografted with human TMD8 cells at 50 mg/kg, po measured upto 24 hrs by LC-MS/MS analysis; type: ADME, organism-based; set-up: time < 24 hrs, dose 50 mg/kg, route po; conditions: in vivo
TMD8 [26] = experiment: Induction of apoptosis in human TMD8 cells assessed as necrotic cells at 2 uM incubated for 24 hrs by Annexin V-FITC/PI staining based flow cytometric analysis (reference value: 1.85%); type: functional
TMD8 [27] = experiment: Induction of apoptosis in human TMD8 cells assessed as late apoptotic cells at 4 uM incubated for 24 hrs by Annexin V-FITC/PI staining based flow cytometric analysis (reference value: 1.54%); type: functional
[28] = Cmax in CB.17 SCID mouse xenografted with human TMD8 cells at 25 mg/kg, po measured upto 24 hrs by LC-MS/MS analysis; type: ADME, organism-based; set-up: dose 25 mg/kg, time < 24 hrs, route po; conditions: in vivo

Nc1ccccc1NC(=O)c1ccc(CN2CCC/C(=C\c3ccccn3)C2=O)cc1
viability at 4 µM (TMD8 [1]): 57.4% | MRT inf [2]: 0.821 h | Activity (TMD8 [3]): 2.32% | microsomal CLint [4]: 13.2 µL/min/mg | AUC(0-inf) [5]: 5180 ng·h/mL | Activity (A549): 48.53% | IC50 (RS4-11): 470 nM | Activity (TMD8 [6]): 3.64% | MRT inf [7]: 1.51 h | IC50 (CCRF-CEM): 480 nM | viability at 1 µM (TMD8 [8]): 92.2% | IC50 (HT-29): 2410 nM | microsomal CLint [9]: 1.7 µL/min/mg | IC50 (HCT-116): 1160 nM | AUC(0-inf) [10]: 1040 ng·h/mL | half-life [11]: 1.63 h | IC50 (HuT78): 800 nM | AUC(0-t) at 24 h [12]: 9740 ng·h/mL | IC50 (Histone deacetylase 1): 84.9 nM | IC50 (NCI-H441): 2620 nM | solubility [13]: 5 ng/mL (≈ 0.0121 µM) | Activity (TMD8 [14]): 2.29% | IC50 (Histone deacetylase 8): > 10000 nM | Activity (TMD8 [15]): 3.13% | Activity (TMD8 [16]): 1.03% | AUC(0-inf) [17]: 9730 ng·h/mL | AUC(0-inf) [18]: 9770 ng·h/mL | Activity (TMD8 [19]): 0.34% | MRT last at 24 h [20]: 1.43 h | MRT last at 24 h [21]: 0.75 h | MRT inf [22]: 0.805 h | IC50 (TMD8 [23]): 310 nM | IC50 (MDA-MB-231): 2290 nM | Cmax [24]: 10700 ng/mL | AUC(0-t) at 24 h [25]: 9710 ng·h/mL | Activity (TMD8 [26]): 6.52% | Activity (TMD8 [27]): 9.64% | Cmax [28]: 1700 ng/mL
